Columns and labels:
[1] = tested on: IL-2 production in Jurkat human T lymphocyte cells; experiment: IL-2 production assay for activity of compounds incubated with human serum
in vitro = settings: incomplete conversion to triptolide, 48 hr incubation
Method: Compounds of formula I, as shown in Table 1 above and in the Examples, were assayed for their capacity to induce apoptosis in cells from the Jurkat human T lymphocyte cell line, after incubation with pooled human serum for varying periods of time at 37° C. (see Example 19). An ester prodrug, triptolide-14-succinate, designated PG490-88, was included for comparison. The extent of conversion to triptolide after such incubation was also independently determined by HPLC analysis.
Prodrug conversions to triptolide as determined independently by HPLC are given in […].

[2] = Table 7, Jurkat cells (48 hrs), 0.001 nM
[3] = Table 7, Jurkat cells (48 hrs), 0.01 nM
[4] = Table 7, Jurkat cells (48 hrs), 0.1 nM
[5] = Table 7, Jurkat cells (48 hrs), 1 nM
[6] = Table 7, Jurkat cells (48 hrs), 10 nM
[7] = Table 7, Jurkat cells (48 hrs), 100 nM
[8] = Table 7, Jurkat cells (48 hrs), 1000 nM
[9] = Table 7, Jurkat cells (48 hrs), 10000 nM
[10] = Table 8, Jurkat cells, 0.0001 nM
[11] = Table 8, Jurkat cells, 0.001 nM
[12] = Table 8, Jurkat cells, 10000 nM

SMILES | IL-2 pg/mL at given concentration (nM) [1, 2] [pg/mL] | IL-2 pg/mL at given concentration (nM) [1, 3] [pg/mL] | IL-2 pg/mL at given concentration (nM) [1, 4] [pg/mL] | IL-2 pg/mL at given concentration (nM) [1, 5] [pg/mL] | IL-2 pg/mL at given concentration (nM) [1, 6] [pg/mL] | IL-2 pg/mL at given concentration (nM) [1, 7] [pg/mL] | IL-2 pg/mL at given concentration (nM) [1, 8] [pg/mL] | IL-2 pg/mL at given concentration (nM) [1, 9] [pg/mL] | IL-2 pg/mL at given concentration (nM) [1, 10] [pg/mL] | IL-2 pg/mL at given concentration (nM) [1, 11] [pg/mL] | IL-2 pg/mL at given concentration (nM) ([1]; Table 8, Jurkat cells, 0.01 nM) [pg/mL] | IL-2 pg/mL at given concentration (nM) ([1]; Table 8, Jurkat cells, 0.1 nM) [pg/mL] | IL-2 pg/mL at given concentration (nM) ([1]; Table 8, Jurkat cells, 1 nM) [pg/mL] | IL-2 pg/mL at given concentration (nM) ([1]; Table 8, Jurkat cells, 10 nM) [pg/mL] | IL-2 pg/mL at given concentration (nM) ([1]; Table 8, Jurkat cells, 100 nM) [pg/mL] | IL-2 pg/mL at given concentration (nM) ([1]; Table 8, Jurkat cells, 1000 nM) [pg/mL] | IL-2 pg/mL at given concentration (nM) [1, 12] [pg/mL] | other results
CC(C)[C@]12O[C@H]1[C@@H]1O[C@]13[C@]1(O[C@H]1C[C@H]1C4=C(CC[C@@]13C)C(=O)OC4)[C@@H]2O [PG490, Triptolide] | 929.7 | 908.6 | 937.8 | 835.2 | 556.1 | 120.7 | 62.9 | 59.2 | 80.0 | 97.2 | 83.2 | 87.1 | 75.7 | 25.5 | 17.8 | 12.9 | 22.3 | –
CC(C)[C@]12O[C@H]1[C@@H]1O[C@]13[C@]1(O[C@H]1C[C@H]1C4=C(CC[C@@]13C)C(=O)OC4)[C@@H]2OC(=O)CCC(=O)O [PG490-88, triptolide-14-succinate, reference compound] | 776.4 | 771.0 | 809.5 | 732.4 | 605.1 | 317.5 | 65.9 | 58.2 | 96.1 | 83.0 | 87.5 | 86.3 | 88.2 | 42.7 | 14.0 | 8.4 | 23.8 | max. conversion at 48 hr in human plasma by HPLC (in vitro): max. 26%; IC50 ([1]; IL-2 production in Jurkat cells after incubation with pooled human serum for 48 hours at 37° C.): 9 nM; Conversion (%) ([1]; percent of the IC50 value produced by triptolide (PG490) in the same experiment, human serum 48 hours): 51%
CCNC(=O)O[C@@H]1[C@@]2(C(C)C)O[C@H]2[C@@H]2O[C@]23[C@]12O[C@H]2C[C@H]1C2=C(CC[C@@]13C)C(=O)OC2 [PG666, Triptolide 14-Ethyl Carbamate] | 844.6 | 799.8 | 860.6 | 773.0 | 819.1 | 528.0 | 180.1 | 63.5 | 94.3 | 105.1 | 97.0 | 92.8 | 80.0 | 89.8 | 33.3 | 10.0 | 8.0 | concentration for equal IL-2 inhibitory activity relative to the active concentration of PG490 [1]: 10-30 times; bioactivity in IL-2 inhibition assays (in words) ([1]; FIGS. 4-5): some level of bioactivity

Reference: US20110076293A1, “TRIPTOLIDE DERIVATIVES FOR MODULATION OF APOPTOSIS AND IMMUNOSUPPRESSION” (priority 2002, published 2011)
